Test system: 931267-113-T-J1-PDC multicell spheroid viability
Assay: Anticancer human tumor 931267-113-T-J1-PDC patient-derived colon adenocarcinoma cell line growth inhibition [PI3K]
Conditions: for IC50: curve of first compound; for viability, T/C: stronger effect = lower value
Method in brief: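 Agents were dosed from a top concentration near clinical Cmax (otherwise 10 microM) in half-log decrements, alone or combined with PI3K inhibitors. The spheroids contain tumor cells plus endothelial (HUVEC) and MSC stroma; viability is measured.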

[1] = second compound 0.0316 µM, first compound 0.0316 µM
[2] = second compound 0.0316 µM, first compound 0.1 µM
[3] = second compound 0.0316 µM, first compound 0.316 µM
[4] = second compound 0.0316 µM, first compound 1 µM
[5] = second compound 0.0316 µM, first compound 3.16 µM
[6] = second compound 0.0316 µM, first compound 10 µM
[7] = second compound 0.1 µM, first compound 0.0316 µM
[8] = second compound 0.1 µM, first compound 0.1 µM
[9] = second compound 0.1 µM, first compound 0.316 µM
[10] = second compound 0.1 µM, first compound 1 µM
[11] = second compound 0.1 µM, first compound 3.16 µM
[12] = second compound 0.1 µM, first compound 10 µM
[13] = second compound 0.316 µM, first compound 0.0316 µM
[14] = second compound 0.316 µM, first compound 0.1 µM
[15] = second compound 0.316 µM, first compound 0.316 µM
[16] = second compound 0.316 µM, first compound 1 µM
[17] = second compound 0.316 µM, first compound 3.16 µM
[18] = second compound 0.316 µM, first compound 10 µM
[19] = second compound 1 µM, first compound 0.0316 µM
[20] = second compound 1 µM, first compound 0.1 µM
[21] = second compound 1 µM, first compound 0.316 µM
[22] = second compound 1 µM, first compound 1 µM
[23] = second compound 1 µM, first compound 3.16 µM
[24] = second compound 1 µM, first compound 10 µM
[25] = second compound 3.16 µM, first compound 0.0316 µM
[26] = second compound 3.16 µM, first compound 0.1 µM
[27] = second compound 3.16 µM, first compound 0.316 µM
[28] = second compound 3.16 µM, first compound 1 µM
[29] = second compound 3.16 µM, first compound 3.16 µM
[30] = second compound 3.16 µM, first compound 10 µM
[31] = second compound 10 µM, first compound 0.0316 µM
[32] = second compound 10 µM, first compound 0.1 µM
[33] = second compound 10 µM, first compound 0.316 µM
[34] = second compound 10 µM, first compound 1 µM
[35] = second compound 10 µM, first compound 3.16 µM
[36] = second compound 10 µM, first compound 10 µM
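Further: viability read 7 days after compound addition.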

**Q.** What does the source list for CCCS(=O)(=O)Nc1ccc(F)c(C(=O)c2c[nH]c3ncc(-c4ccc(Cl)cc4)cc23)c1F + Cc1nc(NC(=O)N2CCCC2C(N)=O)sc1-c1ccnc(C(C)(C)C(F)(F)F)c1?
**A.** IC50 (second compound 0.0316 µM): 6.23 µM; IC50 (second compound 0.1 µM): 6.09 µM; IC50 (second compound 0.316 µM): 5.47 µM; IC50 (second compound 1 µM): 5.38 µM; IC50 (second compound 3.16 µM): 4.53 µM; IC50 (second compound 10 µM): 2.39 µM; viability, T/C [1]: 104%; viability, T/C [2]: 98%; viability, T/C [3]: 121%; viability, T/C [4]: 131%; viability, T/C [5]: 113%; viability, T/C [6]: 6.2%; viability, T/C [7]: 99.5%; viability, T/C [8]: 105%; viability, T/C [9]: 105%; viability, T/C [10]: 118%; viability, T/C [11]: 120%; viability, T/C [12]: 5.03%; viability, T/C [13]: 100%; viability, T/C [14]: 91%; viability, T/C [15]: 95.7%; viability, T/C [16]: 108%; viability, T/C [17]: 91.2%; viability, T/C [18]: 4.47%; viability, T/C [19]: 87.8%; viability, T/C [20]: 80.5%; viability, T/C [21]: 91.5%; viability, T/C [22]: 96.6%; viability, T/C [23]: 89.6%; viability, T/C [24]: 4.19%; viability, T/C [25]: 69%; viability, T/C [26]: 82.1%; viability, T/C [27]: 77.7%; viability, T/C [28]: 72.5%; viability, T/C [29]: 70.7%; viability, T/C [30]: 4.52%; viability, T/C [31]: 61.2%; viability, T/C [32]: 60.9%; viability, T/C [33]: 65.3%; viability, T/C [34]: 63.7%; viability, T/C [35]: 46%; viability, T/C [36]: 3.36%

**Q.** How did the IC50 (second compound 0.0316 µM) turn out when CNC(=O)c1ccc(N2C(=S)N(c3ccc(C#N)c(C(F)(F)F)c3)C(=O)C2(C)C)cc1F + Cc1nc(NC(=O)N2CCCC2C(N)=O)sc1-c1ccnc(C(C)(C)C(F)(F)F)c1 was run?
**A.** The IC50 was over 10 µM.

**Q.** What about the IC50 (second compound 0.1 µM) of the same molecule?
**A.** The IC50 was over 10 µM.

**Q.** What about the IC50 (second compound 0.316 µM) of the same molecule?
**A.** Its IC50 is over 10 µM.

**Q.** And the IC50 (second compound 1 µM)?
**A.** Its IC50 is over 10 µM.

**Q.** And the IC50 (second compound 3.16 µM)?
**A.** Its IC50 is over 10 µM.

**Q.** And the IC50 (second compound 10 µM)?
**A.** The IC50 was 3.66 µM.

**Q.** What about the viability, T/C [1] of the same molecule?
**A.** The viability, T/C was 112%.

**Q.** What about the viability, T/C [2] of the same molecule?
**A.** The viability, T/C was 85%.

**Q.** What about the viability, T/C [3] of the same molecule?
**A.** Its viability, T/C is 95.4%.

**Q.** What about the viability, T/C [4] of the same molecule?
**A.** Its viability, T/C is 105%.

**Q.** What about the viability, T/C [5] of the same molecule?
**A.** Its viability, T/C is 101%.

**Q.** What about the viability, T/C [6] of the same molecule?
**A.** Its viability, T/C is 93.5%.

**Q.** And the viability, T/C [7]?
**A.** Its viability, T/C is 94%.

**Q.** What about the viability, T/C [8] of the same molecule?
**A.** The viability, T/C was 105%.

**Q.** What about the viability, T/C [9] of the same molecule?
**A.** The viability, T/C was 98.7%.

**Q.** What about the viability, T/C [10] of the same molecule?
**A.** The viability, T/C was 105%.

**Q.** And the viability, T/C [11]?
**A.** Its viability, T/C is 99.5%.

**Q.** What about the viability, T/C [12] of the same molecule?
**A.** Its viability, T/C is 98.5%.

**Q.** What about the viability, T/C [13] of the same molecule?
**A.** Its viability, T/C is 92.9%.

**Q.** And the viability, T/C [14]?
**A.** The viability, T/C was 75.9%.

**Q.** What about the viability, T/C [15] of the same molecule?
**A.** Its viability, T/C is 87.9%.

**Q.** And the viability, T/C [16]?
**A.** The viability, T/C was 80.5%.

**Q.** What about the viability, T/C [17] of the same molecule?
**A.** Its viability, T/C is 89.3%.

**Q.** And the viability, T/C [18]?
**A.** Its viability, T/C is 76.5%.

**Q.** And the viability, T/C [19]?
**A.** Its viability, T/C is 89.6%.

**Q.** And the viability, T/C [20]?
**A.** The viability, T/C was 66.4%.

**Q.** And the viability, T/C [21]?
**A.** Its viability, T/C is 73.9%.

**Q.** What about the viability, T/C [22] of the same molecule?
**A.** The viability, T/C was 85.1%.

**Q.** And the viability, T/C [23]?
**A.** Its viability, T/C is 83.5%.

**Q.** And the viability, T/C [24]?
**A.** Its viability, T/C is 76.2%.

**Q.** What about the viability, T/C [25] of the same molecule?
**A.** The viability, T/C was 71.2%.

**Q.** What about the viability, T/C [26] of the same molecule?
**A.** The viability, T/C was 64.5%.

**Q.** And the viability, T/C [27]?
**A.** The viability, T/C was 73.8%.

**Q.** And the viability, T/C [28]?
**A.** Its viability, T/C is 62.5%.

**Q.** What about the viability, T/C [29] of the same molecule?
**A.** The viability, T/C was 77.2%.

**Q.** And the viability, T/C [30]?
**A.** The viability, T/C was 67.5%.

**Q.** And the viability, T/C [31]?
**A.** The viability, T/C was 59.7%.

**Q.** And the viability, T/C [32]?
**A.** Its viability, T/C is 54.2%.

**Q.** And the viability, T/C [33]?
**A.** The viability, T/C was 56.2%.

**Q.** What about the viability, T/C [34] of the same molecule?
**A.** Its viability, T/C is 53.3%.

**Q.** What about the viability, T/C [35] of the same molecule?
**A.** The viability, T/C was 56.4%.

**Q.** What about the viability, T/C [36] of the same molecule?
**A.** Its viability, T/C is 42.2%.

**Q.** What does the source list for Cn1cnc2c(F)c(Nc3ccc(Br)cc3Cl)c(C(=O)NOCCO)cc21 + Cc1nc(NC(=O)N2CCCC2C(N)=O)sc1-c1ccnc(C(C)(C)C(F)(F)F)c1?
**A.** IC50 (second compound 0.0316 µM): 0.0758 µM; IC50 (second compound 0.1 µM): 0.0806 µM; IC50 (second compound 0.316 µM): 0.0616 µM; IC50 (second compound 1 µM): 0.0421 µM; IC50 (second compound 3.16 µM): 0.0196 µM; IC50 (second compound 10 µM): < 0.00949 µM; viability, T/C (second compound 0.0316 µM, first compound 0.00949 µM): 86%; viability, T/C (second compound 0.0316 µM, first compound 0.03 µM): 63.5%; viability, T/C (second compound 0.0316 µM, first compound 0.0949 µM): 47.3%; viability, T/C (second compound 0.0316 µM, first compound 0.3 µM): 32.2%; viability, T/C (second compound 0.0316 µM, first compound 0.949 µM): 18.7%; viability, T/C (second compound 0.0316 µM, first compound 3 µM): 12%; viability, T/C (second compound 0.1 µM, first compound 0.00949 µM): 85.7%; viability, T/C (second compound 0.1 µM, first compound 0.03 µM): 70.2%; viability, T/C (second compound 0.1 µM, first compound 0.0949 µM): 44.1%; viability, T/C (second compound 0.1 µM, first compound 0.3 µM): 30.1%; viability, T/C (second compound 0.1 µM, first compound 0.949 µM): 21%; viability, T/C (second compound 0.1 µM, first compound 3 µM): 10.4%; viability, T/C (second compound 0.316 µM, first compound 0.00949 µM): 74.5%; viability, T/C (second compound 0.316 µM, first compound 0.03 µM): 61.5%; viability, T/C (second compound 0.316 µM, first compound 0.0949 µM): 43.3%; viability, T/C (second compound 0.316 µM, first compound 0.3 µM): 25.9%; viability, T/C (second compound 0.316 µM, first compound 0.949 µM): 16.6%; viability, T/C (second compound 0.316 µM, first compound 3 µM): 8.73%; viability, T/C (second compound 1 µM, first compound 0.00949 µM): 66.4%; viability, T/C (second compound 1 µM, first compound 0.03 µM): 60.5%; viability, T/C (second compound 1 µM, first compound 0.0949 µM): 29%; viability, T/C (second compound 1 µM, first compound 0.3 µM): 20.8%; viability, T/C (second compound 1 µM, first compound 0.949 µM): 13.8%; viability, T/C (second compound 1 µM, first compound 3 µM): 5.73%; viability, T/C (second compound 3.16 µM, first compound 0.00949 µM): 64%; viability, T/C (second compound 3.16 µM, first compound 0.03 µM): 41.6%; viability, T/C (second compound 3.16 µM, first compound 0.0949 µM): 26.7%; viability, T/C (second compound 3.16 µM, first compound 0.3 µM): 15.1%; viability, T/C (second compound 3.16 µM, first compound 0.949 µM): 9.74%; viability, T/C (second compound 3.16 µM, first compound 3 µM): 5.86%; viability, T/C (second compound 10 µM, first compound 0.00949 µM): 49.8%; viability, T/C (second compound 10 µM, first compound 0.03 µM): 33.1%; viability, T/C (second compound 10 µM, first compound 0.0949 µM): 25.5%; viability, T/C (second compound 10 µM, first compound 0.3 µM): 12.2%; viability, T/C (second compound 10 µM, first compound 0.949 µM): 9.35%; viability, T/C (second compound 10 µM, first compound 3 µM): 3.2%

Source: PubChem BioAssay AID1963970 (Molecular Pharmacology Branch, DTP, NCI, 2024)
